Patent US7183112B2, “Uses for anti-malarial therapeutic agents” (APT Pharmaceuticals, LLC, priority 1999, dated 2007)
Values joined by “and” are separate entries in the source; they are usually repeats but may differ in a detail not shown here. Equal entries are not always repeated. Marks after values point to notes of the source that are not given here.

Test system: Ascaris-sensitized sheep
Test: Antigen-induced specific lung resistance (baseline, peak EAR, peak LAR), Example 3
Type: in vivo
Conditions: for EAR (peak, largest specific lung resistance 0–4 h) / LAR (peak, largest specific lung resistance 5–8 h): mean ± SE, n = 3 sheep
From the text: All procedures were approved by the Mount Sinai Medical Center Animal Research Committee, which is responsible for assuring the humane care and use of experimental animals. […] During the chronic treatment trail, venous blood samples were obtained from the external jugular vein for the determination of plasma compound concentrations. Samples were obtained as baseline (pre-dosing), and, then, before dosing on days 8, 15, 22, 29 and after dosing had stopped on day 43. Measurement of Airway Mechanics: The unsedated sheep were restrained in a cart in the prone position with their heads immobilized. After topical anesthesia of the nasal passages with 2%-lidocaine solution, a balloon catheter was advanced through one nostril into the lower esophagus. The animals were […] with a cuffed endotracheal tube through the other nostril using a flexible fiberoptic bronchoscope as a guide. (The cuff of the endotracheal tube was inflated only for the measurement of airway mechanics and during aerosol challenges to prevent undue discomfort. This procedure has no-effect on airway mechanics). Pleural pressure was estimated with the esophageal balloon catheter (filled with one ml of air) which was positioned 5–10 cm from the gastroesophageal junction. In this position, the end expiratory pleural pressure ranged between -2 and -5 cm H2O. Once the balloon was placed, it was secured so that it remained in position for the duration of the experiment. Lateral pressure in the trachea was measured with a sidehole catheter (inner dimension, 2.5 mm) advanced through and positioned distal to the tip of the endotracheal tube. Transpulmonary pressure, the difference between tracheal and pleural pressure, was measured with a differential pressure transducer catheter system. For the measurement of pulmonary resistance (RL), the proximal end of the endotracheal tube was connected to a pneumotachograph. The signals of flow and transpulmonary pressure were recorded on a n oscilloscope recorder which was linked to a computer for on-line calculation of RL from transpulmonary pressure, respiratory volume (obtained by digital integration) and flow. Analysis of 5–10 breaths were used for the determination of RL. Immediately after the measurements of RL, thoracic gas volume (Vtg) was measured in a constant volume body plethysmograph to obtain specific lung resistance (SRL=RL·Vtg) in cm H2O·sec^−1. Aerosol Delivery Systems: Aerosols of Ascaris suum extract (diluted 20:1 with phosphate buffered saline; 82,000 PNU/ml) were generated using a disposable medical nebulizer (Raindrop^R, Puritan Bennett), which produces an aerosol with a mass median aerodynamic diameter of 3.2 μm (geometric standard deviation, 1.9) as determined by a 7 stage Andersen cascade impactor. The output from the nebulizer was directed into a plastic T-piece, one end of which was connected to the inspiratory port of a Harvard respirator. To better control aerosol delivery, a dosimeter consisting of a solenoid valve and a source of compressed air (20 psi) was activated at the beginning of the inspiratory cycle of the Harvard respirator system for 1 second. The aerosol was delivered at a tidal volume of 500 ml and a rate of 20 breaths per minute for 20 minutes. Each sheep was challenged with an equivalent dose of antigen (400 breaths) in the control and drug trials. Carbachol aerosols were also generated with this same nebulizer system. The same basic protocol was used for all studies in Example 3. This basic protocol consisted of first obtaining baseline dose response curves to aerosol carbachol 1–3 days prior to antigen challenge. Then, on the day of antigen challenge, values of specific lung resistance (SRL) were measured at baseline and, then, 30 min after drug or vehicle (0.9% saline) treatment. The animals were, then, challenged with Ascaris suum antigen and SRL was remeasured immediately after challenge, hourly from 1–6 h after challenge and on the half-hour from 6 ½–8 h after challenge. […]

[1] = No Treatment 14d after stopping aerosol 2 mg/kg/d x 28 d
[2] = No Treatment 28d after stopping aerosol 2 mg/kg/d x 28 d
[3] = aerosol 0.2 mg/kg once a day x 4 d
[4] = aerosol 0.6 mg/kg once a day x 4 d
[5] = aerosol 1 mg/kg twice a day for 4 days
[6] = aerosol 1 mg/kg twice a day x 4 d
[7] = aerosol 2 mg/kg once a day for 4 days
[8] = aerosol 2 mg/kg once a day x 4 d
[9] = aerosol 2 mg/kg once a day x 14 d
[10] = aerosol 2 mg/kg once a day x 28 d
[11] = chronic treatment, aerosol 2 mg/kg once a day for up to 4 weeks
[12] = dose response, aerosol 0.2, 0.6 and 2 mg/kg once a day for 4 days
[13] = p.o. 1 mg/kg twice a day for 4 days

`CCN(CCO)CCCC(C)Nc1ccnc2cc(Cl)ccc12` (stereo not drawn) [HCQ, hydroxychloroquine] was tested, and the “effect on LAR and AHR after stopping treatment” value (2 weeks after stopping 4 weeks aerosol 2 mg/kg once a day) was “carryover effect”, the “response to allergen after stopping treatment” value (2 weeks after stopping aerosol 1 mg/kg twice a day for 4 days) was “responded normally” and the “response to allergen after stopping treatment” value (2 weeks after stopping aerosol 2 mg/kg once a day for 4 days) was “responded normally”. The “animals' responses after stopping treatment” value (4 weeks after stopping 4 weeks aerosol 2 mg/kg once a day) was “returned to normal”, the “EAR (peak, largest specific lung resistance 0–4 h)” value [1] was 4.17 ± 1.70 cmH2O.sec^−1 and the “LAR (peak, largest specific lung resistance 5–8 h)” value [1] was 1.69 ± 0.21 cmH2O.sec^−1. The “EAR (peak, largest specific lung resistance 0–4 h)” value [2] was 4.35 ± 0.74 cmH2O.sec^−1, the “LAR (peak, largest specific lung resistance 5–8 h)” value [2] was 2.69 ± 0.26^h cmH2O.sec^−1 and the “EAR (peak, largest specific lung resistance 0–4 h)” value [3] was 3.95 ± 0.47 cmH2O.sec^−1. The “LAR (peak, largest specific lung resistance 5–8 h)” value [3] was 2.22 ± 0.17^h cmH2O.sec^−1, the overall protective effect (aerosol 0.6 mg/kg once a day for 4 days) was “significant protective effects” and the “EAR (peak, largest specific lung resistance 0–4 h)” value [4] was 3.19 ± 0.51 cmH2O.sec^−1. The “LAR (peak, largest specific lung resistance 5–8 h)” value [4] was 1.30 ± 0.18^f cmH2O.sec^−1, the “effect on early airway response (EAR)” value [5] was “no effect” and the “effect on late airway response (LAR)” value [5] was “blocked”. For the same molecule, the “EAR (peak, largest specific lung resistance 0–4 h)” value [6] was 5.57 ± 1.82 cmH2O.sec^−1, the “LAR (peak, largest specific lung resistance 5–8 h)” value [6] was 1.35 ± 0.15^d,e cmH2O.sec^−1 and the “effect on EAR” value [7] was “no effect”. The “effect on LAR” value [7] was “blocked”, the “EAR (peak, largest specific lung resistance 0–4 h)” value [8] was 3.5 ± 0.73 cmH2O.sec^−1 and 3.53 ± 0.73 cmH2O.sec^−1 and the “LAR (peak, largest specific lung resistance 5–8 h)” value [8] was 1.34 ± 0.32^d,e cmH2O.sec^−1 and 1.34 ± 0.03^d cmH2O.sec^−1. The “EAR (peak, largest specific lung resistance 0–4 h)” value [9] was 4.21 ± 1.68 cmH2O.sec^−1, the “LAR (peak, largest specific lung resistance 5–8 h)” value [9] was 0.78 ± 0.39^f cmH2O.sec^−1 and the “EAR (peak, largest specific lung resistance 0–4 h)” value [10] was 4.21 ± 1.16 cmH2O.sec^−1. The “LAR (peak, largest specific lung resistance 5–8 h)” value [10] was 1.22 ± 0.08^d cmH2O.sec^−1, the “effect on EAR” value [11] was “no effect” and the “effect on LAR” value [11] was “block”. For the same molecule, the “effect on EAR” value [12] was “no effect”, the “effect on LAR” value [12] was “blocked” and the “effect on antigen-induced EAR” value [13] was “did not protect”. For the same molecule, the “effect on antigen-induced LAR” value [13] was “did not protect”, the “EAR (peak, largest specific lung resistance 0–4 h)” value (p.o. 1 mg/kg twice a day x 4 d) was 4.64 ± 0.55 cmH2O.sec^−1 and the “LAR (peak, largest specific lung resistance 5–8 h)” value (p.o. 1 mg/kg twice a day x 4 d) was 2.27 ± 0.10 cmH2O.sec^−1.
